Legend:
[1] = standard conditions, worked out from 0.8 mmol and 2 g per mole
[2] = standard conditions (room temperature, standard air pressure); cited from earlier work

## [HH] [hydrogen]
[1]
  hydrogen per liter of water at maximum dissolution: about 1.6 mg per liter
[2]
  maximum concentration at which hydrogen dissolves in water: about 0.8 mmol

— US9539282B2, “Therapeutic use of hydrogen molecules” (MAX-PLANCK-GESELLSCHAFT ZUR FORDERUNG DER WISSENSCHAFTEN …, priority 2012, dated 2017)
